In patent publication US20250115571A1, “OXOPIPERAZINE DERIVATIVES” (Inthera Bioscience AG, priority 2017, published 2025):

What was measured:
[1] = test system: prostate-specific antigen (PSA); experiment: Serum PSA (ELISA) in the castration-resistant prostate cancer patient-derived xenograft mouse model; type: in vivo; conditions: five mice with detectable tumors; daily 10 and 3 mg/kg (two mice) or 6 mg/kg (three mice); blood 3 h after the last dose
Description: Mice from groups 1, 3 and 4 of the CPRC prostate patient-derived xenograft model (TABLE 9, EXAMPLE 322) were used to analyze serum PSA at the end of the experiment. […] PSA was detected by ELISA (Human Kallikrein 3/PSA Quantikine ELISA Kit, R&D Systems, Minneapolis, MN, USA) according to manufacturer's instructions. Minimal relative expected PSA-levels were calculated based on minimal PSA/tumor size ratio of vehicle-treated mice.

[2] = test system: androgen receptor (AR)-target genes KLK3, TMPRSS2, SLC45A3 in LNCaP cells; experiment: P300/CBP-androgen receptor target gene expression regulation in prostate cancer cells (RT-qPCR); type: cell-based, human; conditions: 300 nM added concomitantly to DHT (100 nM, 4 hours)
Description: LNCaP prostate cancer cells (CLS GmbH) were seeded at a density of 15′000 cells/cm^2 in 48-well cell culture-treated plates and cultured for 72 hours in RPMI1640 medium (Sigma-Aldrich) supplemented with Glutamax I (ThermoFisher-Gibco), “Antibiotic and Antimycotic Solution” (Sigma-Aldrich) and 1% fetal calf serum (Sigma-Aldrich). AR-driven gene expression response was induced by addition of the androgen signaling agonist dihydrotestosterone (Selleck Chemicals, Houston, TX, USA) to a concentration of 100 nanomol/Lt for 4 hours. Cells were treated with Compound 258 during dihydrotestosterone induction. Culture medium was carefully removed, cells were washed 1× with Phosphate-Buffered Saline (Sigma-Aldrich) and lysed using the SingleShot Cell Lysis Kit (Bio-Rad, Hercules, CA, USA). Gene expression of well-known AR-responsive genes prostate-specific antigen (KLK3, ThermoFisher), transmembrane serine protease 2 (TMPRSS2, ThermoFisher) and prostein (SLC45A3, ThermoFisher) was assessed by quantitative PCR after reverse transcription of the LNCaP RNA with the Applied Biosystem High-Capacity cDNA Reverse Transcription Kit (ThermoFisher). Gene expression was normalized against four reference genes (RPLP0, GUSB, GAPDH and ACTB, all probe detection systems were from Bio-Rad).

[3] = test system: p53 protein and p53 lysine 382 acetylation in CaSki cells; experiment: P53 protein reactivation in HPV16-positive cervical cancer cells (Western blot); type: cell-based, human; conditions: 72 h
Description: HPV16-positive cervical cancer cells CaSki were subcultured as described in EXAMPLE 1, seeded at a density of 20′000 cells/cm^2; and readily treated with Compound 258 for 72 hrs. For western blot analysis, cells were removed from the cell culture vessels by trypsinization, washed twice with PBS (Sigma-Aldrich), lysed with a RIPA-buffer/Protease inhibitor cocktail (Sigma-Aldrich) by shaking on ice for 30 minutes followed by sonication on ice, 20 minutes centrifugation at 16′000×g, 4° C. Lysates were mixed 1:1 with 4× Lammli Buffer (Bio-Rad) prior to loading onto a Mini-PROTEAN TGX precast 4-20% PAGE gel (Bio-Rad). Gels were run for 1 hour at 110V. Gel were transferred to a Trans-Blot Turbo Mini PVDF membrane (Bio-Rad) using a Bio-Rad Trans-Blot Turbo System according to manufacturer's instructions. Equal amounts of cells were used, and the total transferred protein visualized on a Bio-Rad ChemiDoc Touch Imager prior to incubation with the primary antibody. […] Specific antibody binding was detected with the SuperSignal West Femto Maximum Sensitivity Substrate (ThermoFisher) and visualized using a Bio-Rad ChemiDoc Touch Imager.

CC(C)C[C@@H]1NCCN([C@@H](CC(C)C)C(=O)N2CCC3(C[C@@H]2C)OCC(CN2CCCC2)CO3)C1=O (stereo partly drawn) [Compound 258, (3S)-1-[(2S)-4-methyl-1-oxo-1-[(3s,6s,8S)-8-methyl-3-(pyrrolidin-1-ylmethyl)-1,5-dioxa-9-azaspiro[5.5]undec-an-9-yl]pentan-2-yl]-3-(2-methylpropyl)piper-azin-2-one (^≠), isomer Z]
serum prostate-specific antigen (PSA) levels versus minimal relative expected PSA-levels [1]: clear reduction | repression of PSA (KLK3) gene expression stimulation [2]: complete repression | repression of SLC45A3 gene expression stimulation [2]: 80% | repression of TMPRSS2 gene expression stimulation [2]: 85% | concentration at which acetylation of p53 lysine 382 is detectable [3]: 20 nM | concentration at which induction of p53 protein above baseline is evident [3]: 7 nM
